pIC50: −log10 of the molar value.
Target: T1, human TSHR (Homo sapiens, UniProt P16473)
T1 construct: expressed in transfected cells
Test: Measurement of antagonist activity using TSH-induced cAMP production in human TSHR-stably expressing CHO cells
Format: cell-based
Conditions: human TSH final concentration 50 ng/mL
Method: Measurement of Antagonist Activity Using TSH-induced cAMP Production in Human TSHR-stably Expressing CHO Cells as an Indicator
A gene sequence of human TSHR (reference number NM_000369.2) was inserted into a multiple cloning site of pcDNA3.1(+). The prepared plasmid vector was introduced into CHO cells by a lipofection method to establish human TSHR stably expressing CHO cells. The obtained cells were seeded in a poly-D-lysine-coated 96-well plate at 5 x 10^4 cells/well, and cultured for 1 day in F12 medium containing 10% FBS, 400 µg/mL G418, 50 U/mL penicillin, and 50 µg/mL streptomycin under conditions of 37°C and 5% CO2. After removing a medium, the cells were washed twice with 100 µL per well of an assay buffer (Hanks' Balanced Salt Solution containing 20 mM HEPES and 1 mM IBMX). 30 µL of an assay buffer containing a test compound was added to a well, and the mixture was incubated at room temperature for 15 minutes. Next, 30 µL of an assay buffer containing human TSH (R&D Systems, Inc., final concentration 50 ng/mL) was added, and the mixture was incubated at 37°C for 1 hour. The supernatant was removed, and Lysis and Detection Buffer 2 (Cisbio) was added to prepare a cell lysate by incubating at room temperature for 1 hour. According to the instructions for use of a cAMP Gs HiRange kit (Cisbio), a cell lysate was reacted with d2-labeled cAMP and an anti-cAMP Europium Cryptate labeled antibody (Cisbio) in a 384-well white microplate. Next, a fluorescence intensity ratio (measurement wavelengths 665 nm/620 nm) was measured using a multiplate reader (PHERAstar FSX, BMG LABTECH Japan). A fluorescence intensity ratio of each sample was converted into a cAMP content using a standard curve. A cAMP content was converted into a percentage of a control value, and a cAMP production rate was calculated. Using Prism (Graph Pad Software Inc.), a cAMP production rate was plotted against a test compound concentration, and an IC50 value was calculated. The IC50 of each test compound is shown in the above tables. In the tables, IC50 < 3.0 µM was denoted as A, and 3.0 µM ≤ IC50 < 30 µM was denoted as B. The case where activity was observed but an IC50 value could not be calculated was denoted as C.

T1 sequence (P16473 21-764): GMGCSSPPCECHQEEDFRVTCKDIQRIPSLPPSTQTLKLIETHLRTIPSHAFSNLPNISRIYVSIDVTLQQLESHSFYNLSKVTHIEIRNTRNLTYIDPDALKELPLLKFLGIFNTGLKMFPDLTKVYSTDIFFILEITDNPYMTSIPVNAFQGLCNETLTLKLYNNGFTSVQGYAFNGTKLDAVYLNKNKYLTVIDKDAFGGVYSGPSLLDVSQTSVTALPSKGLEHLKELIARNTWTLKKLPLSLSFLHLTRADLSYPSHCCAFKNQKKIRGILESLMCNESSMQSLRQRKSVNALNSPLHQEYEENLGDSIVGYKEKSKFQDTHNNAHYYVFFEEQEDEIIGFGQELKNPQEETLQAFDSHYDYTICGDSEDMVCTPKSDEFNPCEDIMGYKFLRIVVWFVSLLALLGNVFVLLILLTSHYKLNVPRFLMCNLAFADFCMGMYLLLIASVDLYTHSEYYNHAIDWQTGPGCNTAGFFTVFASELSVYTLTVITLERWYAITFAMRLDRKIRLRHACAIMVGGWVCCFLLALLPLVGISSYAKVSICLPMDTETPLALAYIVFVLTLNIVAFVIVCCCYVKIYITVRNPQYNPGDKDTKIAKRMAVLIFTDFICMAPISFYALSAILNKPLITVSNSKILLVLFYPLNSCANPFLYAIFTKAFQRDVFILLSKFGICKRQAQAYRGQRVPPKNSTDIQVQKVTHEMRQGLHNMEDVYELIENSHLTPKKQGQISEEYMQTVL

| SMILES | pIC50 |
| --- | --- |
| C[C@@H]1CC[C@@H](NC(N)=O)C(=O)N1Cc1cc(C(F)(F)F)ccc1F [Example A-13, 1-((3R,6R)-1-(2-fluoro-5-(trifluoromethyl)benzyl)-6-methyl-2-oxopiperidin-3-yl)urea] | > 5.52 |
| CC(C)(C)OC(=O)NCC[C@@H]1C[C@H](NC(N)=O)C(=O)N(Cc2cc(C(F)(F)F)ccc2F)C1 (relative stereo) [Example A-19, tert-butyl (2-((3R*,5S*)-1-(2-fluoro-5-(trifluoromethyl)benzyl)-6-oxo-5-ureidopiperidin-3-yl)ethyl)carbamate] | > 5.52 |
| C[C@@H]1CC[C@@H](NC(N)=O)C(=O)N1Cc1cccc(Oc2ccccc2)c1 (relative stereo) [Example A-6, 1-((3R^*,6R^*)-6-methyl-2-oxo-1-(3-phenoxybenzyl)piperidin-3-yl)urea] | 4.52 to 5.52 |
| C[C@@H]1CC[C@@H](NC(N)=O)C(=O)N1Cc1cc(-c2ccccc2)ccc1F (relative stereo) [Example A-4, 1-((3R^*,6R^*)-1-((4-fluoro-[1,1'-biphenyl]-3-yl)methyl)-6-methyl-2-oxopiperidin-3-yl)urea] | 4.52 to 5.52 |
| NC(=O)Nc1cc(C(F)(F)F)cn(Cc2cc(C(F)(F)F)ccc2F)c1=O [Example B-6, 1-(1-(2-fluoro-5-(trifluoromethyl)benzyl)-2-oxo-5-(trifluoromethyl)-1,2-dihydropyridin-3-yl)urea] | > 5.52 |
| Cc1cnc(NC(N)=O)c(=O)n1Cc1cc(C(F)(F)F)cc(Cl)c1F [Example B-9, 1-(4-(3-chloro-2-fluoro-5-(trifluoromethyl)benzyl)-5-methyl-3-oxo-3,4-dihydropyrazin-2-yl)urea] | 4.52 to 5.52 |
| NC(=O)Nc1cc(Br)cn(Cc2cc(C(F)(F)F)ccc2F)c1=O [Example B-1, 1-(5-bromo-1-(2-fluoro-5-(trifluoromethyl)benzyl)-2-oxo-1,2-dihydropyridin-3-yl)urea] | > 5.52 |
| O=C(N[C@@H]1CC[C@@H](C(F)F)N(Cc2cc(C(F)(F)F)ccc2F)C1=O)C1CC1 [Example A-28, N-((3R,6S)-6-(difluoromethyl)-1-(2-fluoro-5-(trifluoromethyl)benzyl)-2-oxopiperidin-3-yl)cyclopropanecarboxamide] | > 5.52 |
| Cc1ncc(NC(N)=O)c(=O)n1Cc1cc(C(F)(F)F)cc(Cl)c1F [Example B-8, 1-(1-(3-chloro-2-fluoro-5-(trifluoromethyl)benzyl)-2-methyl-6-oxo-1,6-dihydropyrimidin-5-yl)urea] | > 5.52 |
| CC(c1cc(C(F)(F)F)ccc1F)N1C(=O)[C@H](NC(N)=O)CC[C@H]1C(F)(F)F (stereo partly drawn) [Example A-22, 1-((3R,6S)-1-(1-(2-fluoro-5-(trifluoromethyl)phenyl)ethyl)-2-oxo-6-(trifluoromethyl)piperidin-3-yl)urea] | < 4.52 |
| C[C@@H]1CC[C@@H](NC(N)=O)C(=O)N1Cc1cc(OCc2ccccc2)ccc1F (relative stereo) [Example A-11, 1-((3R^*,6R^*)-1-(5-(benzyloxy)-2-fluorobenzyl)-6-methyl-2-oxopiperidin-3-yl)urea] | > 5.52 |
| C[C@@H]1CC[C@@H](NC(N)=O)C(=O)N1Cc1cc(C#Cc2ccccc2)ccc1F (relative stereo) [Example A-7, 1-((3R^*,6R^*)-1-(2-fluoro-5-(phenylethynyl)benzyl)-6-methyl-2-oxopiperidin-3-yl)urea] | > 5.52 |

The remaining lines, values ahead:

| pIC50 | SMILES |
| --- | --- |
| 4.52 to 5.52 | NC(=O)N[C@@H]1Cc2ccncc2N(Cc2cccc(C(F)(F)F)c2)C1=O [Example C-23, (R)-1-(2-oxo-1-(3-(trifluoromethyl)benzyl)-1,2,3,4-tetrahydro-1,7-naphthyridin-3-yl)urea] |
| > 5.52 | CC(C)(C)NC(=O)Nc1ccc2c(c1)nc(NC(N)=O)c(=O)n2Cc1cc(C(F)(F)F)ccc1F [Example F-9, 1-(tert-butyl)-3-(1-(2-fluoro-5-(trifluoromethyl)benzyl)-2-oxo-3-ureido-1,2-dihydroquinoxalin-6-yl)urea] |
| > 5.52 | NC(=O)Nc1ccc(CN2CCCC2)n(Cc2cc(C(F)(F)F)cc(Cl)c2F)c1=O [Example E-4, 1-(1-(3-chloro-2-fluoro-5-(trifluoromethyl)benzyl)-2-oxo-6-(pyrrolidin-1-ylmethyl)-1,2-dihydropyridin-3-yl)urea] |
| > 5.52 | C=CCc1ccc(NC(N)=O)c(=O)n1Cc1cc(C(F)(F)F)cc(Cl)c1F [Example E-5, 1-(6-allyl-1-(3-chloro-2-fluoro-5-(trifluoromethyl)benzyl)-2-oxo-1,2-dihydropyridin-3-yl)urea] |
| > 5.52 | NC(=O)N[C@@H]1Cc2ccc(Cl)cc2N(Cc2cc(C(F)F)ccc2F)C1=O [Example C-12, (R)-1-(7-chloro-1-(5-(difluoromethyl)-2-fluorobenzyl)-2-oxo-1,2,3,4-tetrahydroquinolin-3-yl)urea] |
| > 5.52 | NC(=O)N[C@@H]1Cc2c(F)cccc2N(Cc2cc(C(F)(F)F)ccc2F)C1=O [Example C-9, (R)-1-(5-fluoro-1-(2-fluoro-5-(trifluoromethyl)benzyl)-2-oxo-1,2,3,4-tetrahydroquinolin-3-yl)urea] |
| > 5.52 | CCOC[C@@H]1CC[C@@H](NC(N)=O)C(=O)N1Cc1cc(C(F)(F)F)ccc1F [Example D-7, 1-((3R,6S)-6-(ethoxymethyl)-1-(2-fluoro-5-(trifluoromethyl)benzyl)-2-oxopiperidin-3-yl)urea] |
| 4.52 to 5.52 | CC(c1cc(C(F)(F)F)ccc1F)N1C(=O)[C@H](NC(N)=O)Cc2ccc(F)cc21 (stereo partly drawn) [Example C-24, 1-((3R)-7-fluoro-1-(1-(2-fluoro-5-(trifluoromethyl)phenyl)ethyl)-2-oxo-1,2,3,4-tetrahydroquinolin-3-yl)urea] |
| > 5.52 | NC(=O)N[C@@H]1Cc2cscc2N(Cc2cccc(C(F)(F)F)c2)C1=O [Example C-22, (R)-1-(2-oxo-1-(3-(trifluoromethyl)benzyl)-1,2,3,4-tetrahydrothieno[3,4-b]pyridin-3-yl)urea] |
| > 5.52 | NC(=O)N[C@@H]1Cc2ccc(C(F)F)cc2N(Cc2cc(OC(F)(F)F)ccc2F)C1=O [Example C-18, (R)-1-(7-(difluoromethyl)-1-(2-fluoro-5-(trifluoromethoxy)benzyl)-2-oxo-1,2,3,4-tetrahydroquinolin-3-yl)urea] |
| > 5.52 | Cc1ccc(NC(=O)N2CCC2)c(=O)n1Cc1cc(C(F)(F)F)cc(Cl)c1F [Example E-9, N-(1-(3-chloro-2-fluoro-5-(trifluoromethyl)benzyl)-6-methyl-2-oxo-1,2-dihydropyridin-3-yl)azetidine-1-carboxamide] |
| 4.52 to 5.52 | Cc1nc2c(s1)N(Cc1cc(C(F)(F)F)ccc1F)C(=O)[C@H](NC(N)=O)C2 [Example F-6, (R)-1-(4-(2-fluoro-5-(trifluoromethyl)benzyl)-2-methyl-5-oxo-4,5,6,7-tetrahydrothiazolo[5,4-b]pyridin-6-yl)urea] |
| > 5.52 | NC(=O)N[C@@H]1Cc2ccsc2N(Cc2cc(C(F)(F)F)ccc2F)C1=O [Example F-4, (R)-1-(7-(2-fluoro-5-(trifluoromethyl)benzyl)-6-oxo-4,5,6,7-tetrahydrothieno[2,3-b]pyridin-5-yl)urea] |
| > 5.52 | NC(=O)N[C@@H]1Cc2ccc(C(F)F)cc2N(Cc2cc(C(O)(C(F)(F)F)C(F)(F)F)ccc2F)C1=O [Example C-20, (R)-1-(7-(difluoromethyl)-1-(2-fluoro-5-(1,1,1,3,3,3-hexafluoro-2-hydroxypropan-2-yl)benzyl)-2-oxo-1,2,3,4-tetrahydroquinolin-3-yl)urea] |
| 4.52 to 5.52 | Cc1cccc(CN2C(=O)[C@H](NC(N)=O)Cc3ccccc32)c1 [Example C-1, (R)-1-(1-(3-methylbenzyl)-2-oxo-1,2,3,4-tetrahydroquinolin-3-yl)urea] |
| < 4.52 | NC(=O)N[C@@H]1CC[C@@H](CN2CCCC2)N(Cc2cc(C(F)(F)F)ccc2F)C1=O [Example D-5, 1-((3R,6S)-1-(2-fluoro-5-(trifluoromethyl)benzyl)-2-oxo-6-(pyrrolidin-1-ylmethyl)piperidin-3-yl)urea] |
| < 4.52 | CC(=O)NC[C@@H]1CC[C@@H](NC(N)=O)C(=O)N1Cc1cc(C(F)(F)F)ccc1F [Example D-8, N-(((2S,5R)-1-(2-fluoro-5-(trifluoromethyl)benzyl)-6-oxo-5-ureidopiperidin-2-yl)methyl)acetamide] |
| > 5.52 | NC(=O)N[C@@H]1Cc2sccc2N(Cc2cc(C(F)(F)F)ccc2F)C1=O [Example F-5, (R)-1-(4-(2-fluoro-5-(trifluoromethyl)benzyl)-5-oxo-4,5,6,7-tetrahydrothieno[3,2-b]pyridin-6-yl)urea] |
| > 5.52 | NC(=O)N[C@@H]1Cc2ccc(C(F)F)cc2N(Cc2cc(C(F)(F)F)ccc2F)C1=O [Example C-10, (R)-1-(7-(difluoromethyl)-1-(2-fluoro-5-(trifluoromethyl)benzyl)-2-oxo-1,2,3,4-tetrahydroquinolin-3-yl)urea] |
